From ChEMBL document CHEMBL1201862, “PubChem BioAssay data set” (2004) come the findings set out here.

Calls of active or inactive are those of the source.

The nature of experiment [1]: viability loss in HEK293 cells – cell-based, plate reader, cherry-picked samples, cytotoxicity control, dose response (AID 743446). In kind it is functional.
Experiment [2] is described as follows: toxicity toward HepG2 liver cells – cell-based, plate reader, cherry-pick, antagonist series, cytotoxicity control, dose response (AID 743416). Type of experiment: functional.
A short description of experiment [3]: Luminescence Cell-Based Dose Retest to Confirm Inhibitors of Cancer Stem Cells. [Related pubchem assays (depositor defined):AID2717, AID2721]. Type of experiment: functional. The settings on record: Homo sapiens.
A further experiment has as its system INS1. The experiment in a line: INS-1E survival protection against cytokine death – cell-based, luminescence, retest, dose response (AID 449756).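 Also: cell death triggered by IL-1 beta plus TNF-alpha plus IFN-gamma mixture; protective hits raise ATP signal compared with cytokine alone wells.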 In kind it is functional. As to conditions: Rattus norvegicus.
The nature of experiment [4]: Luminescence Cell-Based Dose Confirmation HTS to Identify Activators of 5'UTR Stem-Loop Driven Alpha-Synuclein mRNA Translation in H4 Neuroglioblastoma Cells. [Related pubchem assays: 1829 (Project Summary), 1814 (Primary HTS)]. Type of experiment: functional.
Another experiment deals with H4. Nature of the experiment: Luminescence Cell-Based Dose Response HTS to Identify Activators of 5'UTR Stem-Loop Driven Prion Protein mRNA Translation in H4 Neuroglioblastoma Cells. [Related pubchem assays: 1829 (Project Summary), 1814 (Primary HTS)]. As to conditions: Homo sapiens. Type of experiment: functional.
Experiment [5] can be described thus: Luminescence Cell-Based Dose Response HTS to Identify Activators of Luciferase Translation or Activity in H4 […] Cells. [Related pubchem assays: 1829 (Project Summary), 1814 (Primary HTS)]. Type of experiment: functional.
The nature of experiment [6]: A549 cell cytotoxicity, dose response, cytotoxicity control, plate reader, cherry-pick, antagonist series (AID 743412). Type of experiment: functional, cell-based.
A further experiment concerns the target T1, Protein RecA (Mycobacterium tuberculosis, UniProt P9WHJ3).
T1 sequence (P9WHJ3 whole entry): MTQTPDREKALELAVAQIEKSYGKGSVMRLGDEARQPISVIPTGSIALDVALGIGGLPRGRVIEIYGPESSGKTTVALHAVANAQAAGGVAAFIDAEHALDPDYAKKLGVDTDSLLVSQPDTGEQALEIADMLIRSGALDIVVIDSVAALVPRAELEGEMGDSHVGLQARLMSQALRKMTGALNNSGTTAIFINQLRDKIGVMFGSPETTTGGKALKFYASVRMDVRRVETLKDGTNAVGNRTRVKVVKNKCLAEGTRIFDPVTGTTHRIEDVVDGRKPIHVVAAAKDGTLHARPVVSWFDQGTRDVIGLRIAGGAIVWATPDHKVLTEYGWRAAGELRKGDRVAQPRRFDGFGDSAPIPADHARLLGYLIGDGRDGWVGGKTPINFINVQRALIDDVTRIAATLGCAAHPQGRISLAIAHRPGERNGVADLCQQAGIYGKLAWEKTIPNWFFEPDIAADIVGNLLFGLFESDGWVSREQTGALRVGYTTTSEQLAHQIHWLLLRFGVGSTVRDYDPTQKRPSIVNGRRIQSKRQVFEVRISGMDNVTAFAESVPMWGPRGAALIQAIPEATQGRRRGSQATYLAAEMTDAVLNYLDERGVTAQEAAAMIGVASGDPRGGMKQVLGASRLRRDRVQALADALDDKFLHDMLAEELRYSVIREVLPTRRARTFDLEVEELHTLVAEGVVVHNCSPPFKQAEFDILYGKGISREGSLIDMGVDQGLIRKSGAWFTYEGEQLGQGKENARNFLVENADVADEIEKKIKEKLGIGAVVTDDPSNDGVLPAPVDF
The experiment in a line: Fluorescence Cell-Free Homogeneous Dose Retest to Identify Inhibitors of RecA-Intein Splicing Activity. [Related pubchem assays (depositor defined):AID2097, AID2223, AID489010, AID492950]. Type of experiment: functional.

A short description of experiment [7]: cells. In kind it is functional, cell-based. The settings on record: HEK-CNG.
In a further experiment the target is Cytochrome P450 2D6 (Homo sapiens, UniProt P10635).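 Also: CYP2D6 member of a cytochrome P450 panel assay.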
For a further experiment, the target named is Cytochrome P450 3A4 (Homo sapiens, UniProt P08684).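 Also: CYP3A4 tested as one member of a cytochrome P450 panel screen.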
The nature of experiment [8]: HEK-293T viability loss after treatment – luminescence, T-cell screen hits, cytotoxicity control for TCR NF-kB inhibitor project, dose response (AID 489026).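 Also: cells exposed to compound about 14 hours before the viability readout.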 In kind it is functional, cell-based.
The target in a further experiment is Galanin receptor type 3 (Homo sapiens, UniProt O60755). The experiment in a line: Fluorescence-based cell-based primary high throughput dose response assay to identify antagonists of the Galanin Receptor 3 (GalR3). In kind it is functional.
The nature of experiment [9]: THP-1 cell cytotoxicity, dose response, cytotoxicity control for non-replicating M. tuberculosis project (AID 489025). Type of experiment: functional.
Experiment [10] is described as follows: viability loss in HepG2 hepatoma cells – cell-based, ATP luminescence, cherry-pick, activator set 2, cytotoxicity control, dose response (AID 1053143). In kind it is functional.
Experiment [11] in a line: HepG2 cell cytotoxicity, dose response, cytotoxicity control for non-replicating M. tuberculosis project (AID 489018). Type of experiment: functional. The settings on record: Mycobacterium tuberculosis.
Experiment [12] can be described thus: Vero E6 cell cytotoxicity, dose response, cytotoxicity control for non-replicating M. tuberculosis project, secondary assay (AID 492998). In kind it is functional, VeroE6. The settings on record: Vero C1008.
Experiment [13] is described as follows: cells. In kind it is functional.
Another experiment addresses Major prion protein (Homo sapiens, UniProt P04156). Type of experiment: functional, cell-based.
The nature of experiment [14]: cells.
Experiment [15] addresses T2, Heat shock factor protein 1 (Mus musculus, UniProt P38532).
T2 sequence (P38532 whole entry): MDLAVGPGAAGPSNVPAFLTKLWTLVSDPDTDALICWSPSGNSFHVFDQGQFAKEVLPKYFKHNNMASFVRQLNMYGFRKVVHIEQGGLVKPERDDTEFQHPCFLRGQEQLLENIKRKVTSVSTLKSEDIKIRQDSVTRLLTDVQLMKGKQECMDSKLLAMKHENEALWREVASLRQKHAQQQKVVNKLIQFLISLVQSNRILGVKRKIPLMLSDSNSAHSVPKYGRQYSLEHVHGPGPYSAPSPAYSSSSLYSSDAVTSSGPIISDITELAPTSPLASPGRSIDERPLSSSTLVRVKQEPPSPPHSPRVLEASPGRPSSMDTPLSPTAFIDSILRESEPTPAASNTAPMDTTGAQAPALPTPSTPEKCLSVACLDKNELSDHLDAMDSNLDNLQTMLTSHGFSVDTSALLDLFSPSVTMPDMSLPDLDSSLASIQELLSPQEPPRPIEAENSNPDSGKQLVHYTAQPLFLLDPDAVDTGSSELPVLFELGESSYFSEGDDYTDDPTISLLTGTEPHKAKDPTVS
The experiment in a line: enhancement of HSF1-driven luciferase signal – cell-based, NIH3T3, luminescence, dose retest, confirmation (AID 435004).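 Also: stress induced by proteasome inhibitor MG132 added 30 min after compound; luciferase reporter driven by HSF1 response element in NIH3T3 cells; actives raise luminescence as potentiators of the MG132 stress response.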 Type of experiment: functional.

The target in experiment [16] is Disintegrin and metalloproteinase domain-containing protein 17 (Homo sapiens, UniProt P78536). Nature of the experiment: inhibition of ADAM17 substrate cleavage – biochemical, quenched FRET substrate, counter-screen for ADAM10 exosite inhibitor project, dose response (AID 743253).
In experiment [17] the test system is Vero. The experiment in a line: cells. In kind it is functional, cell-based. As to conditions: Chlorocebus sabaeus.
Experiment [18] in a line: viability of PTEN-deleted HCT116 cells – cell-based, HCT116 PTEN knockout, dose response (AID 1047).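 Also: HCT116 colon tumor cells with PTEN knocked out; cells exposed to compound for 60 hours before readout; potency for loss of cell viability measured by luminescence.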 Type of experiment: functional.
Experiment [19] is described as follows: potency of ADAM10 substrate cleavage blockers – biochemical, QFRET, dose response (AID 743254).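 Also: ADAM10 enzyme with the DM2 quenched FRET peptide as substrate; EDANS fluorescence gain as the protease cuts the substrate; inhibitor potency against ADAM10 proteolytic activity.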
The subject of experiment [20] is Vero. Nature of the experiment: cells. As to conditions: Chlorocebus sabaeus. Type of experiment: functional.
A short description of experiment [21]: viability of HCT116 lacking mutant beta-catenin – cell-based, human colon tumor, dose response (AID 1045).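 Also: HCT116 colon tumor cells with beta catenin knocked out; cells exposed to compound for 60 hours.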 Type of experiment: functional.
Experiment [22] can be described thus: blockade of melanocortin 4 receptor signaling – cell-based, plate reader, cherry pick, counter-screen for LGR2 antagonist project, dose response (AID 743444).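 Also: transfected HEK 293 cells stimulated with alpha-MSH peptide; potency of inhibitors of the alpha-MSH evoked signal.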 In kind it is functional.
Experiment [23] in a line: blockers of bursicon-stimulated LGR2 cAMP reporter – cell-based, HEK293, CRE-luciferase reporter, cherry pick, set 2, dose response (AID 743343).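 Also: transfected cells were stimulated with diluted bursicon conditioned medium after compound addition.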 Type of experiment: functional.

Sequence of Galanin receptor type 3 (O60755 whole entry): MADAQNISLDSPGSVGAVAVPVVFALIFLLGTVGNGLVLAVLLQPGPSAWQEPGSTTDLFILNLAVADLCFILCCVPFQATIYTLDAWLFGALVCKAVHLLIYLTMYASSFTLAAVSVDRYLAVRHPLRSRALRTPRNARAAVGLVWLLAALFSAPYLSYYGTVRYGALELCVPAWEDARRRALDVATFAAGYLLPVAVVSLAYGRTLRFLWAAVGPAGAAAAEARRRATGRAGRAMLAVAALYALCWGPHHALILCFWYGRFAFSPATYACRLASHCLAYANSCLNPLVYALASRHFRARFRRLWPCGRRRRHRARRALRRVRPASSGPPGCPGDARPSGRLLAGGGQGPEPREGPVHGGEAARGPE
Sequence of Cytochrome P450 2D6 (P10635 whole entry): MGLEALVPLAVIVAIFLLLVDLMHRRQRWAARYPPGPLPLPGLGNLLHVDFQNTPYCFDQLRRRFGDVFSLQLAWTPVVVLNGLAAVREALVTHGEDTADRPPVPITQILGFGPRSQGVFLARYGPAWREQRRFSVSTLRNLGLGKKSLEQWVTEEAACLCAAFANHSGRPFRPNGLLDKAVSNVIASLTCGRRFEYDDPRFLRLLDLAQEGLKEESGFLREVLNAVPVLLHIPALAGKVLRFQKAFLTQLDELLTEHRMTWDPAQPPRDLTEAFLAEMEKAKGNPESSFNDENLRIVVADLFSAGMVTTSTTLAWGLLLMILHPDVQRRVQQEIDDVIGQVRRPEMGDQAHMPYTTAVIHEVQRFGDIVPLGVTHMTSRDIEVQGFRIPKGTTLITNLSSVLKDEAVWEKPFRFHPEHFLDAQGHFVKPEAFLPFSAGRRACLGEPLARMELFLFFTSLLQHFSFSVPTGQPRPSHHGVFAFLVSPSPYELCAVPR
Sequence of Disintegrin and metalloproteinase domain-containing protein 17 (P78536 whole entry, the tested form may be a part): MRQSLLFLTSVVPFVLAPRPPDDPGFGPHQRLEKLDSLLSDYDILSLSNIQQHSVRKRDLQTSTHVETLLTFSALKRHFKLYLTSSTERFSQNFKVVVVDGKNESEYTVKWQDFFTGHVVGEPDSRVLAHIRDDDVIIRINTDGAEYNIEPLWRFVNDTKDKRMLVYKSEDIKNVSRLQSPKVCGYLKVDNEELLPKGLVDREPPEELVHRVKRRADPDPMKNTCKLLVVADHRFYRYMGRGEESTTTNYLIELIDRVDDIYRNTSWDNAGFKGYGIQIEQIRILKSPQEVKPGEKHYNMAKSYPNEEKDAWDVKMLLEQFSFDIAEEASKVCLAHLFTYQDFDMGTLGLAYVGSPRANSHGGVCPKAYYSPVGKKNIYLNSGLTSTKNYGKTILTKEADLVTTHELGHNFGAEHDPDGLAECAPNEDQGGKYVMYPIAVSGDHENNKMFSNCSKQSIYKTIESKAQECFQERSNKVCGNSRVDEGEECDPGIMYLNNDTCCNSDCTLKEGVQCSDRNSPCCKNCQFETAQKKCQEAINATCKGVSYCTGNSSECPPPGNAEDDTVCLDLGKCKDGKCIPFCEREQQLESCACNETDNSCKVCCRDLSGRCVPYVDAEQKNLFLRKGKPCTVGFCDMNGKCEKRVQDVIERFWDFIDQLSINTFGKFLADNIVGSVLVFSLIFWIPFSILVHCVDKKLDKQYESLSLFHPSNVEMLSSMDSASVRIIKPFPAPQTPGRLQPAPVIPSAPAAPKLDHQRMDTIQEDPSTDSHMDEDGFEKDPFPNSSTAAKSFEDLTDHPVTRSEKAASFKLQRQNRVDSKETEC
Sequence of Cytochrome P450 3A4 (P08684 whole entry): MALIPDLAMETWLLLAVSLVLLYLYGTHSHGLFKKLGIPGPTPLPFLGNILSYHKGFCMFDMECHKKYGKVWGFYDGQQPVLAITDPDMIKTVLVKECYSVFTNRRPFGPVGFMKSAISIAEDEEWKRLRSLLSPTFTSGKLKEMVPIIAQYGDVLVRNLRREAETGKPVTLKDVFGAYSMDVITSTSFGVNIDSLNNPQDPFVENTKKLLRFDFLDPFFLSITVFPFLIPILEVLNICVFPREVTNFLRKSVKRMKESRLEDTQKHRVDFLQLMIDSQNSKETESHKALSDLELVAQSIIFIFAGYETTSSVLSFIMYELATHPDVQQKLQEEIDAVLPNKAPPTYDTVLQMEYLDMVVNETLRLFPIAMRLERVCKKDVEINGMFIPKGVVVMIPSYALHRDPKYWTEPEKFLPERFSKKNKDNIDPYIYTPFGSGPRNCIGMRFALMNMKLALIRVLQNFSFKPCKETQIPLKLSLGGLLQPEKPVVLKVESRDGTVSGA

As to `COc1cc(NC2CCCCC2O)c2nc(-c3ccc(Cl)cc3)ccc2c1` (stereo not drawn), the AC50 is > 52 µM (inactive) in experiment [1]; 26.3 µM (active) in [2]; 2.07 µM (active) in experiment [3]; 3.57 µM (active) with INS1; 20.3 µM (active) in experiment [6]. In addition, the EC50 in experiment [4] was 9.15 µM (active); in the experiment with H4, > 60 µM (not active); in [5], 12.9 µM (active); at Protein RecA, 0.0728 µM (active).
For `CCc1c(C)nc2ncnn2c1NCCc1ccc(OC)cc1`, the EC50 in the experiment “cells [7]” was > 29.9 µM (inactive). Besides, the AC50 at Cytochrome P450 2D6 was 12.6 µM (inconclusive); at Cytochrome P450 3A4, 25.1 µM (inconclusive); with INS1 it was 5.39 µM (active). For the same compound, the figures for the IC50 (in experiment [8]; on Galanin receptor type 3) were > 80 µM (inactive) and 3.2 µM (active), respectively.
Regarding `Cc1cc(NCc2ccccn2)n2ncc(-c3ccccc3)c2n1`, the CC50 in experiment [9] is 6.66 µM (active); in [11], 4.11 µM (active); in experiment [12] it was 11.8 µM (active). The AC50 in experiment [10] was 26 µM (active). Further, the IC50 in the experiment “cells [13]” was 1.4 µM (active).
For the compound `N=C(N)NS(=O)(=O)c1ccc(NC(=S)NC(=O)c2sc3ccccc3c2Cl)cc1`, the IC50 at Major prion protein is 5.54 µM (active); in the experiment “cells [14]” it was > 138 µM (inactive).
As to `Cc1ccc(N(CC(=O)NCCc2ccc(F)cc2)S(=O)(=O)c2ccc(Cl)c([N+](=O)[O-])c2)c(C)c1`, the EC50 is 17.1 µM (active) in experiment [15], 14 µM (active) in experiment [18] and 8.87 µM (active) in experiment [21]. Further, the results for the IC50 (in experiment [16]; in the experiment with Vero [17]; in experiment [19]) were > 69.5 µM (inactive), > 25 µM (active) and > 69.5 µM (inactive), respectively. In the experiment with Vero [20], the CC50 is 18.4 µM (active).
In the case of `c1ccc(-n2nnnc2Sc2ncnc3sc4c(c23)CCCC4)cc1`, the AC50 in experiment [1] was 42.3 µM (active); in [2] it was > 52 µM (inactive); in experiment [22] it was 5.73 µM (active); in experiment [23], 5.02 µM (active).
